From patent publication US20230405078A1, “DETECTION AND TREATMENT OF INTESTINAL FIBROSIS” (THE REGENTS OF THE UNIVERSITY OF CALIFORNIA, priority 2020, published 2023)
Where no end group is shown, it is not given here.

Legend:
[1] = tested on: primary stricturing CD patient-derived colonic fibroblasts; assay: Fibrogenesis in CDSE-treated primary stricturing CD patient-derived colonic fibroblasts; assay type: cell-based, human
Experimental: Stricturing CD patient-derived primary colonic fibroblasts (CD-HIFs) were obtained from Cleveland Clinic via material transfer agreement (MTA2020-00000154) and under
Cleveland Clinic IRB directives (IRB #17-1167). Primary non-IBD patient-derived colonic fibroblasts (H6231) were purchased from Cell Biologics. All primary colonic fibroblasts were cultured in fibroblast medium (M2267, Cell Biologics). Human colonic CCD-18Co fibroblasts (ATCC) were cultured in minimal essential medium Eagle's medium (MEM) containing 10% fetal bovine serum and 1% penicillin-streptomycin 6, 20. All fibroblasts were grown to 80% confluence and then switched to serum-free media overnight for experiments.
For activation of protease-activated receptors (PARs), fibroblasts were pretreated with 0.8% DMSO, 10 μM PAR1 agonist TRAP-6 (HY-P0078, MCE), 10 μM PAR2 agonist SLIGKV-NH2 (Protease-Activated Receptor-2, amide, HY-P0283, MCE), or 0.4 μg/ml PAR2-activating protease recombinant cathepsin S (1183-CY-010, R&D Systems) for 30 minutes. For miR205-5p activation, fibroblasts were transfected with (30 picomoles/well) either control (YM00479902) or miR205-5p miRCURY LNA mimic (YM00472340) from Qiagen via Lipofectamine 3000 transfection reagent (L3000001, ThermoFisher) in Opti-MEM (#31985062, ThermoFisher) overnight. […]

ERK1/2 phosphorylation = assay: Phospho-ERK1/2 ELISA in CCD-18Co fibroblasts; assay type: cell-based, human
Experimental: FIG. 27. Elafin inhibited ERK1/2 phosphorylation in intestinal fibroblasts via PAR2. (A) Serum starved CCD-18Co and primary stricturing CD patient-derived colonic fibroblasts were transiently transfected with either control siRNA or ZEB1 siRNA overnight, followed by treatment with 10 ng/ml TGF-β1 or 100 μg/ml stricturing CD patient-derived serum exosomes (CDSE) for 24 hours. (B) CCD-18Co fibroblasts were treated with DMSO, PAR1 inhibitor (SCH79797), or PAR2 inhibitor (GB88) for 2 hours. GB88 inhibited ERK1/2 phosphorylation. (C) CCD-18Co fibroblasts were pretreated with DMSO, PAR1 agonist, or PAR2 agonists for 30 minutes, followed by TGF-β1 10 ng/ml. Two hours later, elafin (1 μg/ml) and incubated for 2 hours. Elafin inhibited ERK1/2 phosphorylation, which was reversed by PAR2 agonist. […] Phospho-ERK1/2, ProCOL1A1, COL1A2, and ZEB1 protein were determined by ELISA. miR205-5p expression was determined by real-time RT-PCR. […]
FIG. 28. […] (D) Quantification of cathepsin S signals (B7-8) and control signals (A1-2 and E1-2) on the protease array using Bio-Rad Image Lab Software. […] Phospho-ERK1/2 was determined by ELISA. […] ProCOL1A1 and COL1A2 were determined by ELISA. […]

Substance	ProCOL1A1 protein expression ([1]; CDSE-treated, Elafin 1 μg/ml)	ERK1/2 phosphorylation (ERK1/2 phosphorylation; CCD-18Co fibroblasts)	effect on elafin-mediated inhibition of collagen expression ([1]; CDSE-conditioned primary human colonic fibroblasts)	effect on elafin-mediated inhibition of ERK1/2 phosphorylation (ERK1/2 phosphorylation; elafin 1 μg/ml, 2 hours)
Elafin: small (6 kDa) human elastase-specific protease inhibitor and antimicrobial peptide; active form SEQ ID NO: 2 (AQEPVKGPVSTKPGSCPIILIRCAMLNPPNRCLKDTDCPGIKKCCEGSCGMACFVPQ; listed as Homo sapiens)	inhibited	inhibited	–	–
SLIGKV-NH2 [PAR2 agonist, reference compound]	–	–	reversed	reversed
